Tests used:
[1] = Stability across narrow pH 2-3.6 (1 mg/mL; 10 mM citric acid and glycine); format: physicochemical; parameters: Assay: unit not given here; settings: for Impurities: in %
Method: Buffer solutions containing ca. 10 mM each of citric acid and glycine in the pH range 2-3.6 were prepared by titrating 250 mL of a single stock containing both buffer agents with 1N NaOH/1N HCl and removing 50 mL aliquots at predetermined pH values. (XXXVI) solutions at 1 mg/mL were prepared in the buffers by dissolving ˜25 mg of (XXXVI) in ca. 23 mL of a given buffer, adjusting the pH to the target and making up the volume to 25.0 mL in a volumetric flask. Each of the buffered (XXXV) solutions was filtered through a 0.2 μm polyether sulfone syringe filter into a volumetric flask previously rinsed with 70% ethanol and dried in a laminar flow hood. Following filtration, each buffered (XXXV) solution was split into 9 aliquots in 5 mL serum vials previously rinsed with 70% ethanol and dried in a laminar flow hood. Filtration and preparation of aliquots were performed in a laminar flow hood. Of the nine aliquots, three aliquots were stored at each 40° C. and 60° C., two aliquots were stored at 25° C. and one aliquot was submitted for T0 testing. Samples were evaluated for pH, assay and related substances at T0 and, following 1 week, 2 weeks and 4 weeks of storage at 40° C. and 60° C. Samples stored at 25° C. served as controls to be analyzed if necessary

pKa = format: physicochemical

Compound: CCCNc1nc(NCCC)nc(N(C)OC)n1 [XXXV, N-(4,6-Bis-n-propylamino-[1,3,5]triazin-2-yl)-N,O-dimethyl-hydroxylamine]
- pH dependence of impurity levels ([1]; 40° C. and 60° C. storage, pH 2-3.6): impurity levels decreased significantly with increasing pH
- impurity levels at pH 2 vs. impurity levels at pH 3.6 ([1]; pH range 2-3.6): ≥ 10 fold
- Assay ([1]; target pH 2.0, 40° C. 1 wk): 0.959
- pH ([1]; target pH 2.0, 40° C. 1 wk): 2.00
- Impurities ([1]; target pH 2.0, 40° C. 1 wk): 0.99
- Assay ([1]; target pH 2.0, 40° C. 2 wk): 0.955
- pH ([1]; target pH 2.0, 40° C. 2 wk): 1.98
- Impurities ([1]; target pH 2.0, 40° C. 2 wk): 1.55
- Assay ([1]; target pH 2.0, 40° C. 4 wk): 0.956
- pH ([1]; target pH 2.0, 40° C. 4 wk): 1.98
- Impurities ([1]; target pH 2.0, 40° C. 4 wk): 2.84
- Assay ([1]; target pH 2.0, 60° C. 1 wk): 0.913
- pH ([1]; target pH 2.0, 60° C. 1 wk): 2.00
- Impurities ([1]; target pH 2.0, 60° C. 1 wk): 3.87
- Assay ([1]; target pH 2.0, 60° C. 2 wk): 0.851
- pH ([1]; target pH 2.0, 60° C. 2 wk): 1.97
- Impurities ([1]; target pH 2.0, 60° C. 2 wk): 7.56
- Assay ([1]; target pH 2.0, 60° C. 4 wk): 0.768
- pH ([1]; target pH 2.0, 60° C. 4 wk): 1.89
- Impurities ([1]; target pH 2.0, 60° C. 4 wk): 13.99
- Assay ([1]; target pH 2.0, initial): 0.981
- pH ([1]; target pH 2.0, initial): 2.00
- Impurities ([1]; target pH 2.0, initial): 0.14
- Assay ([1]; target pH 2.3, 40° C. 1 wk): 0.984
- pH ([1]; target pH 2.3, 40° C. 1 wk): 2.36
- Impurities ([1]; target pH 2.3, 40° C. 1 wk): 0.47
- Assay ([1]; target pH 2.3, 40° C. 2 wk): 0.993
- pH ([1]; target pH 2.3, 40° C. 2 wk): 2.32
- Impurities ([1]; target pH 2.3, 40° C. 2 wk): 0.63
- Assay ([1]; target pH 2.3, 40° C. 4 wk): 0.995
- pH ([1]; target pH 2.3, 40° C. 4 wk): 2.33
- Impurities ([1]; target pH 2.3, 40° C. 4 wk): 1.70
- Assay ([1]; target pH 2.3, 60° C. 1 wk): 0.961
- pH ([1]; target pH 2.3, 60° C. 1 wk): 2.36
- Impurities ([1]; target pH 2.3, 60° C. 1 wk): 1.81
- Assay ([1]; target pH 2.3, 60° C. 2 wk): 0.932
- pH ([1]; target pH 2.3, 60° C. 2 wk): 2.34
- Impurities ([1]; target pH 2.3, 60° C. 2 wk): 3.53
- Assay ([1]; target pH 2.3, 60° C. 4 wk): 0.916
- pH ([1]; target pH 2.3, 60° C. 4 wk): 2.28
- Impurities ([1]; target pH 2.3, 60° C. 4 wk): 6.30
- Assay ([1]; target pH 2.3, initial): 0.987
- pH ([1]; target pH 2.3, initial): 2.33
- Impurities ([1]; target pH 2.3, initial): 0.09
- Assay ([1]; target pH 2.7, 40° C. 1 wk): 0.981
- pH ([1]; target pH 2.7, 40° C. 1 wk): 2.73
- Impurities ([1]; target pH 2.7, 40° C. 1 wk): 0.22
- Assay ([1]; target pH 2.7, 40° C. 2 wk): 0.985
- pH ([1]; target pH 2.7, 40° C. 2 wk): 2.72
- Impurities ([1]; target pH 2.7, 40° C. 2 wk): 0.37
- Assay ([1]; target pH 2.7, 40° C. 4 wk): 1.019
- pH ([1]; target pH 2.7, 40° C. 4 wk): 2.73
- Impurities ([1]; target pH 2.7, 40° C. 4 wk): 0.61
- Assay ([1]; target pH 2.7, 60° C. 1 wk): 0.978
- pH ([1]; target pH 2.7, 60° C. 1 wk): 2.75
- Impurities ([1]; target pH 2.7, 60° C. 1 wk): 0.97
- Assay ([1]; target pH 2.7, 60° C. 2 wk): 1.144
- pH ([1]; target pH 2.7, 60° C. 2 wk): 2.74
- Impurities ([1]; target pH 2.7, 60° C. 2 wk): 1.76
- Assay ([1]; target pH 2.7, 60° C. 4 wk): 0.987
- pH ([1]; target pH 2.7, 60° C. 4 wk): 2.67
- Impurities ([1]; target pH 2.7, 60° C. 4 wk): 3.09
- Assay ([1]; target pH 2.7, initial): 0.987
- pH ([1]; target pH 2.7, initial): 2.72
- Assay ([1]; target pH 3.0, 40° C. 1 wk): 1.01
- pH ([1]; target pH 3.0, 40° C. 1 wk): 3.04
- Impurities ([1]; target pH 3.0, 40° C. 1 wk): 0.21
- Assay ([1]; target pH 3.0, 40° C. 2 wk): 0.987
- pH ([1]; target pH 3.0, 40° C. 2 wk): 3.05
- Impurities ([1]; target pH 3.0, 40° C. 2 wk): 0.34
- Assay ([1]; target pH 3.0, 40° C. 4 wk): 1.027
- pH ([1]; target pH 3.0, 40° C. 4 wk): 3.04
- Impurities ([1]; target pH 3.0, 40° C. 4 wk): 0.58
- Assay ([1]; target pH 3.0, 60° C. 1 wk): 0.991
- pH ([1]; target pH 3.0, 60° C. 1 wk): 3.05
- Impurities ([1]; target pH 3.0, 60° C. 1 wk): 0.61
- Assay ([1]; target pH 3.0, 60° C. 2 wk): 0.975
- Impurities ([1]; target pH 3.0, 60° C. 2 wk): 1.27
- Assay ([1]; target pH 3.0, 60° C. 4 wk): 0.987
- Impurities ([1]; target pH 3.0, 60° C. 4 wk): 1.82
- Assay ([1]; target pH 3.0, initial): 1.005
- pH ([1]; target pH 3.0, initial): 3.02
- Assay ([1]; target pH 3.3, 40° C. 1 wk): 1.02
- pH ([1]; target pH 3.3, 40° C. 1 wk): 3.35
- Assay ([1]; target pH 3.3, 40° C. 2 wk): 1.01
- pH ([1]; target pH 3.3, 40° C. 2 wk): 3.35
- Assay ([1]; target pH 3.3, 40° C. 4 wk): 1.047
- pH ([1]; target pH 3.3, 40° C. 4 wk): 3.34
- Impurities ([1]; target pH 3.3, 40° C. 4 wk): 0.25
- Assay ([1]; target pH 3.3, 60° C. 1 wk): 0.997
- pH ([1]; target pH 3.3, 60° C. 1 wk): 3.36
- Impurities ([1]; target pH 3.3, 60° C. 1 wk): 0.41
- Assay ([1]; target pH 3.3, 60° C. 2 wk): 0.995
- pH ([1]; target pH 3.3, 60° C. 2 wk): 3.37
- Impurities ([1]; target pH 3.3, 60° C. 2 wk): 0.69
- Assay ([1]; target pH 3.3, 60° C. 4 wk): 1.027
- pH ([1]; target pH 3.3, 60° C. 4 wk): 3.34
- Impurities ([1]; target pH 3.3, 60° C. 4 wk): 1.26
- Assay ([1]; target pH 3.3, initial): 1.019
- pH ([1]; target pH 3.3, initial): 3.31
- Assay ([1]; target pH 3.6, 40° C. 1 wk): 0.991
- pH ([1]; target pH 3.6, 40° C. 1 wk): 3.64
- Assay ([1]; target pH 3.6, 40° C. 2 wk): 0.985
- pH ([1]; target pH 3.6, 40° C. 2 wk): 3.70
- Assay ([1]; target pH 3.6, 40° C. 4 wk): 0.991
- pH ([1]; target pH 3.6, 40° C. 4 wk): 3.64
- Impurities ([1]; target pH 3.6, 40° C. 4 wk): 0.17
- Assay ([1]; target pH 3.6, 60° C. 1 wk): 0.979
- pH ([1]; target pH 3.6, 60° C. 1 wk): 3.65
- Impurities ([1]; target pH 3.6, 60° C. 1 wk): 0.36
- pH ([1]; target pH 3.6, 60° C. 2 wk): 3.70
- Impurities ([1]; target pH 3.6, 60° C. 2 wk): 0.62
- pH ([1]; target pH 3.6, 60° C. 4 wk): 3.64
- Impurities ([1]; target pH 3.6, 60° C. 4 wk): 0.99
- Assay ([1]; target pH 3.6, initial): 0.996
- pH ([1]; target pH 3.6, initial): 3.62
- Impurities ([1]; target pH 3.6, initial): 0.12

Compound: CCCNc1nc(NCCC)nc(N(C)OC)n1.O=S(=O)(O)O [XXXVI, N-(4,6-Bis-n-propylamino-[1,3,5]triazin-2-yl)-N,O-dimethyl-hydroxylamine hydrogen sulfate]
- pKa (pKa): 5.6
